The target in data set [1] is T1, PTP1B (truncated form, first 321 amino acids) (Homo sapiens, UniProt P18031).
T1 construct: a truncated form of PTP1B (corresponding to the first 321 amino acids); made in house; host or cells: E. coli
T1 sequence (P18031 1-321): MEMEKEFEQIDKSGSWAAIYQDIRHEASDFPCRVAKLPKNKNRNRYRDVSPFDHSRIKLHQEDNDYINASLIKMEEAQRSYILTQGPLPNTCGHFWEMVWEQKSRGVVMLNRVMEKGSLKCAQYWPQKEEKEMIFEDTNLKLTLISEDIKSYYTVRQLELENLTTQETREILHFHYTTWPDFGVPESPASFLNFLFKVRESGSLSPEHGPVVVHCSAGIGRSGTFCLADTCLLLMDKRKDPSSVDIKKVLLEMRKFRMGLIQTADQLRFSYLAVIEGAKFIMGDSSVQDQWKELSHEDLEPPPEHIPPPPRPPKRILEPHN
In words: Inhibition of truncated PTP1B, p-nitrophenyl phosphate substrate. The settings on record: p-nitrophenyl phosphate 0.16 to 10 mM; pH 5.5; 25° C., 60 minutes. Format: biochemical. How it is done: The compounds are evaluated for biological activity with a truncated form of PTP1B (corresponding to the first 321 amino acids), which was expressed in E. coli and purified to apparent homogeneity using published procedures well-known to those skilled in the art. The enzyme reactions are carried out using standard conditions essentially as described by Burke et al. (Biochemistry 35; 15989-15996 (1996)). The assay conditions are as follows. Appropriate concentrations of the compounds of the invention are added to the reaction mixtures containing different concentrations of the substrate, p-nitrophenyl phosphate (range: 0.16 to 10 mM—final assay concentration). The buffer used was 100 mM sodium acetate pH 5.5, 50 mM sodium chloride, 0.1% (w/v) bovine serum albumin and 5 mM dithiothreitol (total volume […]). The reaction was started by addition of the enzyme and carried out in microtiter plates at 25° C. for 60 minutes. The reactions are stopped by addition of NaOH. The enzyme activity was determined by measurement of the absorbance at 405 nm with appropriate corrections for absorbance at 405 nm of the compounds and p-nitrophenyl phosphate. The data are analyzed using nonlinear regression fit to classical Michaelis Menten enzyme kinetic models. Inhibition is expressed as Ki values in μM.

Structures are written as SMILES. A value given as a limit tells only on which side of the number the result lay.

`O=C(CN1C(=O)c2ccccc2C1=O)NCc1cc(C(=O)O)c(NC(=O)C(=O)O)s1` [Example 41, 5-((2-(1,3-Dioxo-1.3-dihydro-isoindol-2-yl)-acetylamino)-methyl)-2-(oxalyl-amino)-thiophene-3-carboxylic acid]: the melting point was 243 to 244 °C (dec.).

In turn, `O=C(O)C(=O)Nc1scc(-c2ccccc2)c1C(=O)O` [Example 4, 2-(Oxalyl-amino)-4-phenyl-thiophene-3-carboxylic acid] gave a Ki in data set [1] of 100 µM. Take `O=C(O)C(=O)Nc1sc(-c2ccccc2)cc1C(=O)O` [Example 19, 2-(Oxalyl-amino)-5-phenyl-thiophene-3-carboxylic acid]: the melting point lay within 238 to 240 °C.

The compound `O=C(O)C(=O)Nc1sc(Cc2ccccc2)cc1C(=O)O` [Example 17, 2-(Oxalyl-amino)-5-(phenyl-methyl)thiophene-3-carboxylic acid] came in with a melting point of 230 to 231 °C. With `Cc1[nH]cc(NC(=O)C(=O)O)c1C(=O)O` [Example 1, 2-Methyl4-(oxalyl-amino)-1H-pyrrole-3-carboxylic acid], the Ki in data set [1] was found to be 200 µM. In turn, `O=C(O)C(=O)Nc1scc(-c2ccccc2)c1C(=O)O` (hydrate or solvate) [Example 4, 2-(Oxalyl-amino)-4-phenyl-thiophene-3-carboxylic acid] gave a melting point of 196 to 198 °C. The same measure, in the same setting: for `COc1ccc(Oc2ccc(-c3cc(NC(=O)C(=O)O)c(C(=O)O)s3)cc2)cc1` (hydrate or solvate) [Example 14, 5-(4-(4-Methoxy-phenoxy)-phenyl)-3-(oxalyl-amino)-thiophene-2-carboxylic acid] the value was 215 °C (dec.); for `O=C(O)C(=O)Nc1nn(Cc2ccccc2)cc1C(=O)O` (hydrate or solvate) [Example 2, 1-Benzyl-3-(oxalyl-amino)-1H-pyrazole-4-carboxylic acid], 189 to 191 °C. `O=C(O)C(=O)Nc1scc(C2CCCCC2)c1C(=O)O` (hydrate or solvate) [Example 3, 4-Cyclohexyl-2-(oxalyl-amino)-thiophene-3-carboxylic acid] yielded a melting point of over 250 °C.

Broadly, the melting point is the temperature of the solid-liquid transition. In general, Ki refers to the equilibrium dissociation constant of an inhibitor or competing ligand from its target. Read a low Ki as tighter binding.

The values are drawn from patent US20050119332A1, “Substituted thiophene compounds as modulators of protein tyrosine phosphatases (PTPases)” (priority 1998, published 2005).
